How the values were obtained:
[1] = tested on: human epidermoid cancer cell line A-431; assay: MTT cell proliferation assay, human epidermoid (squamous) carcinoma cell line A-431; assay type: cell-based; settings: for Mean OD: MTT Optical Density at 570 nm
Protocol: (§1) The three human skin cancer cell lines were: • 1) Human Melanoma cell line (A-2058). • 2) Human Epidermoid (Squamous) Carcinoma cell line (A-431). • 3) Human Basal Cell Carcinoma cell line (TE 354.T).
(§2) The cell lines were revived from cryostorage and cultured in the presence of the test and reference samples. An MIT assay was then performed on the cultures to determine the effect of the samples on the cell viability and proliferation. The percentage standard error of the mean was assessed and extreme outliers were removed if the SEM%>15. Preliminary statistical significance was assessed with an independent Student t-test at α<0.05 (with and without outliers). The methodology was based on the procedures reported by: • Ahn, N G, Campbell J S (1993). […] Proc Natl Acad Sci. 90: 5143-5147. • Galan-Cobo, A et al (2014). Functional inhibition of aquaporin-3 with a gold-based compound induces blockage of cell proliferation. J Cellul. Physiol. 229: 1787-1801. • Roomi, M W, Kalinovsky, J et al (2013) Effect of a nutrient mixture on matrix metalloproteinase-9 dimers in various human cancer cell lines. Inter 3 Oncol. 44: 936-942. • Huang, H C, Lin, M K et al (2013). Cardenolides and bufadienolide glycosides from Kalanchoe tubiflora and evaluation of cytotoxicity. Planta Medica. 79: 1362-1369. • Tilli, C M L J, Stavast-Kooy, A J W et al (2003). The garlic-derived organosulfur component ajoene decreases basal cell carcinoma tumor size by inducing apoptosis. Arch Dermatol Res. 295: 117-123.
(§3) • 1. Human melanoma cell line (A-2058, ATCC CRL11147) was obtained from ATCC, Bethesda, Md., USA. • 2. Human squamous (epidermoid) carcinoma cell line (A-431, ATCC CRL1555) was obtained from ATCC, Bethesda, Md. USA. • 3. Human basal cell carcinoma cell line (TE 354.T, ATCC CRL7762) was obtained from ATCC, Bethesda, Md., USA. • 4. Dulbecco's Modified Eagle's Medium (DMEM) was obtained from GIBCO (12100-038). 10% Foetal Bovine Serum (FBS), 100 U/ml Penicillin and […] Streptomycin were added before use. • 5. Penicillin-streptomycin solution, stored at −20° C. consisting of 10000 units/ml penicillin and 10 mg/ml streptomycin in 0.9% NaCl was obtained from Sigma (#P-0781). • 6. Trypsin-EDTA solution consisting of 0.25% Trypsin/EDTA was obtained from Invitrogen (#15400054). • 7. Phosphate buffered saline (PBS) was prepared in-house. • 8. Hanks Balanced Salt Solution (HBSS), stored at 4° C. was obtained from GIBCO (#14185-052). • 9. Foetal Bovine Serum (FBS) stored at −20° C. was obtained from GIBCO (#10091-148). • 10. MTT Reagent, 100 mg/vial, was obtained from Sigma (M-2128) and then dissolved in PBS at 10 mg/ml and stored at −20° C. A 5 mg/ml MTT solution was prepared in PBS and stored at 4° C. as the working solution. • 11. MU lysis buffer: 10% sodium dodecyl sulphate (SDS)/45% Dimethyl Formamide was prepared by dissolving 20 g SDS in 100 ml of double-distilled water (DDW), and then adding 90 ml of Dimethyl Formamide to the solution. The pH was adjusted to 4.7 by glacial acetic acid, and DDW added up to a final volume of 200 ml. • 12. 5-Fluorouracil (5-FU) was supplied by Sigma (F-6627). Three working solutions were prepared at 19.5 μg/ml. 6.5 μg/ml and 1.95 μg/ml dissolved in 15% Ethanol/HBSS. Final concentrations were 1.95 μg/ml (15 μM), 0.65 μg/ml (5 μM) and 0.195 μg/ml (1.5 μM).
(§4) • 1. Each of the cell lines was revived from cryostorage. • 2. Following initial propagation using the media described above (Characterisation of Test System, and Medium Preparation), the cell culture was subcultured using trypsin-EDTA. The media was removed and 5ml of the trypsin-EDTA solution added and incubated at 37° C. for 5 min or until all the cells had detached. The trypsin was neutralised by the addition of an equal volume of the relevant medium and centrifugation of the suspension at 300 g (1200 rpm) for 5 min at 4° C. • 3. […]

[2] = tested on: human basal carcinoma cell line TE 354.T; assay: MTT cell proliferation assay, human basal cell carcinoma cell line TE 354.T; assay type: cell-based; settings: for Mean OD: MTT Optical Density at 570 nm
Protocol: as §1, §2, §3, §4

O=c1[nH]cc(F)c(=O)[nH]1 [5-fluorouracil, reference compound]
% inhibition ([1]; A-431, 0.195 μg/ml, 24 hr incubation, vs cells only): weak and statistically insignificant inhibitor | Mean OD ([1]; A-431, 0.195 μg/ml): 0.2364 | % inhibition ([1]; A-431, 0.65 μg/ml, 24 hr incubation, vs cells only): weak and statistically insignificant inhibitor | Mean OD ([1]; A-431, 0.65 μg/ml): 0.2416 | % inhibition ([1]; A-431, 1.95 μg/ml, 24 hr incubation, vs cells only): weak and statistically insignificant inhibitor | Mean OD ([1]; A-431, 1.95 μg/ml): 0.2561 | inhibition at 0.195 µg/mL ([1]; Homo sapiens, A-431, 0.195 μg/ml, 24 hr incubation, vs cells only): 9.79% | inhibition at 0.65 µg/mL ([1]; Homo sapiens, A-431, 0.65 μg/ml, 24 hr incubation, vs cells only): 7.8% | inhibition at 1.95 µg/mL ([1]; Homo sapiens, A-431, 1.95 μg/ml, 24 hr incubation, vs cells only): 2.26% | Mean OD ([2]; 0.195 μg/ml): 0.2548 | Mean OD ([2]; 0.65 μg/ml): 0.2656 | Mean OD ([2]; 1.95 μg/ml): 0.2553 | inhibition at 0.195 µg/mL ([2]; Homo sapiens, 0.195 μg/ml, 24 hr incubation, vs cells only): 5.49% | inhibition at 0.65 µg/mL ([2]; Homo sapiens, 0.65 μg/ml, 24 hr incubation, vs cells only): 1.49% | inhibition at 1.95 µg/mL ([2]; Homo sapiens, 1.95 μg/ml, 24 hr incubation, vs cells only): 5.31%

— patent US20170209499A1, “Propolis and Extracts Thereof for the Treatment of Skin Cancers and Improvement of Skin Health” (Manuka Health New Zealand Limited, priority 2014, published 2017)
